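In this assay, cells in 96-well plates receive the compound at five concentrations for 48 hours. Endpoints are linearly interpolated between the surrounding concentrations. GI50: concentration for 50% inhibition of growth. The concentration for full growth arrest is given as TGI.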
Legend:
Assay in all cases: DTP human tumour cell line panel, 48 h
[1] = system: OVCAR-4 ovarian
[2] = system: MOLT-4 leukemia
[3] = system: KM12 colon
[4] = system: SF-268 CNS
[5] = system: MDA-MB-231 breast
[6] = system: UO-31 renal
[7] = system: OVCAR-5 ovarian
[8] = system: IGROV1 ovarian
[9] = system: HS 578T breast
[10] = system: SK-OV-3 ovarian

SMILES	TGI [1] [µM]	TGI [2] [µM]	TGI [3] [µM]	TGI [4] [µM]	GI50 [5] [µM]	TGI [5] [µM]	TGI [6] [µM]	TGI [7] [µM]	TGI [8] [µM]	GI50 [9] [µM]	TGI [9] [µM]	GI50 [10] [µM]	TGI [10] [µM]	GI50 [1] [µM]	GI50 [2] [µM]	GI50 [3] [µM]	GI50 [4] [µM]	GI50 [6] [µM]	GI50 [7] [µM]	GI50 [8] [µM]
CC1=C(CO)C(=O)O[C@@H]([C@@H](C)[C@H]2CC[C@H]3[C@@H]4C[C@H]5O[C@]56[C@@H](O)C=CC(=O)[C@]6(C)[C@H]4CC[C@]23C)C1	1.8	1.72	1.82	1.29	0.491	1.77	1.31	2.64	0.544	0.402	> 100	3.93	13.8							
Cc1nn(C)c2ncnc(N/N=C/c3cccc(O)c3O)c12	23.4	28.7	> 100	20.4	0.486	39.5	2.19	> 100	> 30.4	2.29	> 100	2.24	> 81	0.378	0.323	0.392	0.342	0.251	4.06	1.78
CC(C)=Cc1cc(C)c2ccc(C)c3c2c1C(C)=C(O)C3=O	> 100	6.05	> 100	> 100	20.4	43.3	> 100	43.1	71.6	25.7	74.9	27.4	81.2	> 100	1.19	29.8	0.0856	23.5	18.7	21
CN(C)CCN1C(=O)c2cccc3c(/C=C/CN4C(=O)c5cccc6cccc(c56)C4=O)ccc(c23)C1=O	> 100	> 100	> 100	> 100	35.9	> 100	48.2	> 100	> 100	13.8	35.7	> 100	> 100	> 100	> 100	> 100	51.5	17.4	35.5	> 100
CCN1CCN(c2cc(C(=O)Nc3cccc(Nc4ccc5c(OC)cccc5n4)c3)cc(C(F)(F)F)c2)CC1	9.32	12.3	6.35	7.41	1.8	6.47	3.88	7.84	5.23	3.61	11.9	4.6	11	1.57	0.616	1.71	1.76	0.746	2.78	0.924
CC(C)C[C@H](NC(=O)Cn1cccc(CNC(=O)c2ccccc2)c1=O)B(O)O	> 77	> 100	3	2.95	0.567	3.06	23	38.9	45.8	0.335		1.2	41	0.897	0.289	0.649	0.4	4	2.76	4.01
C=CC1C(CC2OC(CO)C(O)C(O)C2O)OC=C2C(=O)OCCC21O (configuration not stated)	30.2	30.5	30.1	89	40.9	99.6	> 100	44.5	53.1	34.6	> 100	46.6	> 100	5.82	3.78	3.05	24.3	16.4	14.4	8.36
OCCCCC#Cc1ccccc1C#Cc1cccnc1	> 100	> 100	> 100	> 100	22.4	69.7	90.4	> 100	52	44.9	> 100	57.3	> 100	26.5	27.9	35.2	40.3	25.2	27.5	20.3
NC1=NC(SCc2ccccc2CCl)c2ncn(Cc3ccccc3CCl)c2N1 (configuration not stated)	10.2	6.03	3.6	10.2	2.9	11.4	3.08	9.88	3.57	3.51	> 100	3.87	13.9	2.83	2.04	1.74	2.01	1.51	2.7	1.52
CN1CCN(C(=O)c2ccc(NC(=O)Nc3ccc(-c4nc(N5CCOCC5)c5cccn5n4)cc3)cc2)CC1	0.095	2.11	13.7	12	0.0431	11.3	5.82	12.8	1.2	0.0177	0.082	0.0223	0.121	0.0149	0.0443	0.0787	0.0399	0.304	0.0439	0.0255
O=C1NC(=O)C(c2cccc(Cl)c2)=C1Nc1ccc(Cl)c(C(=O)O)c1	> 25	> 25	> 25	> 25	> 25	> 25	> 25	> 25	> 25	> 25	> 25	> 25	> 25	> 25	> 25	> 25	> 25	> 25	> 25	> 25
COC(=O)CC1(O)C=CC(=O)C=C1	11.6	7.25	3.46	14.8		6.51	9.93	25	5.04		39.4		29.6							
O=c1[nH]c2ccccc2c(O)c1/C=N/C(=S)NC1CCCCC1	> 100	> 100	> 100	> 100		> 100	> 100	> 100	> 100		> 100		> 100							

— PubChem BioAssay (NCI)
